Reference: patent publication US10457691B2, “Macrocyclic kinase inhibitors and uses thereof” (Dana-Farber Cancer Institute, Inc., priority 2014, dated 2019)

Columns and labels:
Assay type in all cases: biochemical
Conditions in all cases: read-out: Activity of the protein kinase when treated with compound I-1 (% control)
[1] = target: DYRK3 (Homo sapiens, UniProt O43781); test: Protein kinase assay ([γ-32P] ATP), DYRK3
Description: (§1) In another set of experiments, the activities of the compounds described herein against various protein kinases were determined according to the methods reported in Hastie et al., Nature Protocols, 2006, 1, 968-971.
(§2) Enzyme dilution buffer. This buffer consisted of 50 mM Tris-HCl, pH 7.5, 0.1 mM EGTA, 1 mg ml^−1 bovine serum albumin and 0.1% (vol/vol) 2-mercaptoethanol.
(§3) 10× concentrated assay buffer. An assay buffer of 500 mM Tris-HCl, pH 7.5, 1 mM EGTA, and 100 mM magnesium acetate was used for assay of a wide variety of protein kinases. In some experiments, other cofactors were included (e.g., calcium ions and calmodulin were included for assay of calcium-calmodulindependent protein kinases).
(§4) 1 mM [γ-^32P] ATP. The specific activity of the [γ-^32P] ATP solution was 1×10^5 to 1×10^6 c.p.m. per nmol depending on what was needed to produce an optimal signal/noise ratio. […] To measure the concentration of ATP, a sample of such a stock solution was diluted to 20 μM, and the absorbance of the diluted sample was measured at 259 nm. The absorbance of a 20-μM stock solution of ATP at 259 nm was about 0.31. […] ATP to produce a radioactivity of 1×10^5 to 1×10^6 c.p.m. per nmol. […]
(§5) 13) Measure radioactivity in the samples by Cerenkov counting (e.g., without liquid scintillation fluid) in a liquid scintillation counter using a “^32P program”. […]

[2] = target: PIM3 (Homo sapiens, UniProt Q86V86); test: Protein kinase assay ([γ-32P] ATP), PIM3
Description: as §1, §2, §3, §4, §5

[3] = target: TLK1 (Homo sapiens, UniProt Q9UKI8); test: Protein kinase assay ([γ-32P] ATP), TLK1
Description: as §1, §2, §3, §4, §5

[4] = target: PKCγ (Homo sapiens, UniProt P05129); test: Protein kinase assay ([γ-32P] ATP), PKCγ
Description: as §1, §2, §3, §4, §5

[5] = target: JNK3 (Homo sapiens, UniProt P53779); test: Protein kinase assay ([γ-32P] ATP), JNK3
Description: as §1, §2, §3, §4, §5

[6] = target: ERK1 (Homo sapiens, UniProt P27361); test: Protein kinase assay ([γ-32P] ATP), ERK1
Description: as §1, §2, §3, §4, §5

[7] = target: CHK1 (Homo sapiens, UniProt O14757); test: Protein kinase assay ([γ-32P] ATP), CHK1
Chain of CHK1 (O14757 whole entry): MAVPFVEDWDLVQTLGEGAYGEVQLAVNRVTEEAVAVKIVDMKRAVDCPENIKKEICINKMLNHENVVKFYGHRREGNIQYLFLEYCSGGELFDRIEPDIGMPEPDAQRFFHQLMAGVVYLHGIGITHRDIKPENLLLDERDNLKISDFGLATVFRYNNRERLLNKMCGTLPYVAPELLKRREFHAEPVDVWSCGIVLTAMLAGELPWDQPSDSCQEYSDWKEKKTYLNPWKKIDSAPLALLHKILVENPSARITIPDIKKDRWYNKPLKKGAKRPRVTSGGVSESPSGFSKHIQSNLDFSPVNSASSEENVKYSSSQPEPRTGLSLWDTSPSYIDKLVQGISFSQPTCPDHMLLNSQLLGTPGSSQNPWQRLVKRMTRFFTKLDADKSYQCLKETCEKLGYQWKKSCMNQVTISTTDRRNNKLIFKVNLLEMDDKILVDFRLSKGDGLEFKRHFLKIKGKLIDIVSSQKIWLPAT
Description: as §1, §2, §3, §4, §5

[8] = target: IGF-1R (Homo sapiens, UniProt P08069); test: Protein kinase assay ([γ-32P] ATP), IGF-1R
Description: as §1, §2, §3, §4, §5

[9] = target: CHK2 (Homo sapiens, UniProt O96017); test: Protein kinase assay ([γ-32P] ATP), CHK2
Description: as §1, §2, §3, §4, §5

[10] = target: GSK3b (Homo sapiens, UniProt P49841); test: Protein kinase assay ([γ-32P] ATP), GSK3b
Description: as §1, §2, §3, §4, §5

[11] = target: PAK5 (Homo sapiens, UniProt Q9P286); test: Protein kinase assay ([γ-32P] ATP), PAK5
Chain of PAK5 (Q9P286 whole entry): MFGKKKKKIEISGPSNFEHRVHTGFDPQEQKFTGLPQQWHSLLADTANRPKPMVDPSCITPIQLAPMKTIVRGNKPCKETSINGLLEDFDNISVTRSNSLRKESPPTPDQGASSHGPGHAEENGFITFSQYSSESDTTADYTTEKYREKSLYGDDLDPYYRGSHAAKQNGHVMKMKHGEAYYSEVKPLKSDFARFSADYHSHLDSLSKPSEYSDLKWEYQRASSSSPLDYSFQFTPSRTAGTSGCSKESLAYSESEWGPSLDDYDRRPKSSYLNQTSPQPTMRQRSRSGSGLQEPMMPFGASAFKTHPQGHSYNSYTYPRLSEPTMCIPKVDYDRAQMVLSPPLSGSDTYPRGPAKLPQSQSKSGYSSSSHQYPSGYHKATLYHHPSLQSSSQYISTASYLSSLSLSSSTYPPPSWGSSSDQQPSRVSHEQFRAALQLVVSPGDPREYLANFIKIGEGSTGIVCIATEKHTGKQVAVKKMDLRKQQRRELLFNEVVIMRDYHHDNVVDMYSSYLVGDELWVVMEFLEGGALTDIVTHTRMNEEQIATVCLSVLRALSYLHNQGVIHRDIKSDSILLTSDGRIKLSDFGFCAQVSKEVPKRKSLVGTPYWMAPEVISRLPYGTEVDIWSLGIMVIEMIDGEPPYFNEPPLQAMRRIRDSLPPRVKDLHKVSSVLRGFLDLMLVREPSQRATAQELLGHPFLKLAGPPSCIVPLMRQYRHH
Description: as §1, §2, §3, §4, §5

[12] = target: PLK1 (Homo sapiens, UniProt P53350); test: Protein kinase assay ([γ-32P] ATP), PLK1
Description: as §1, §2, §3, §4, §5

[13] = target: TBK1 (Homo sapiens, UniProt Q9UHD2); test: Protein kinase assay ([γ-32P] ATP), TBK1
Chain of TBK1 (Q9UHD2 whole entry, species assumed): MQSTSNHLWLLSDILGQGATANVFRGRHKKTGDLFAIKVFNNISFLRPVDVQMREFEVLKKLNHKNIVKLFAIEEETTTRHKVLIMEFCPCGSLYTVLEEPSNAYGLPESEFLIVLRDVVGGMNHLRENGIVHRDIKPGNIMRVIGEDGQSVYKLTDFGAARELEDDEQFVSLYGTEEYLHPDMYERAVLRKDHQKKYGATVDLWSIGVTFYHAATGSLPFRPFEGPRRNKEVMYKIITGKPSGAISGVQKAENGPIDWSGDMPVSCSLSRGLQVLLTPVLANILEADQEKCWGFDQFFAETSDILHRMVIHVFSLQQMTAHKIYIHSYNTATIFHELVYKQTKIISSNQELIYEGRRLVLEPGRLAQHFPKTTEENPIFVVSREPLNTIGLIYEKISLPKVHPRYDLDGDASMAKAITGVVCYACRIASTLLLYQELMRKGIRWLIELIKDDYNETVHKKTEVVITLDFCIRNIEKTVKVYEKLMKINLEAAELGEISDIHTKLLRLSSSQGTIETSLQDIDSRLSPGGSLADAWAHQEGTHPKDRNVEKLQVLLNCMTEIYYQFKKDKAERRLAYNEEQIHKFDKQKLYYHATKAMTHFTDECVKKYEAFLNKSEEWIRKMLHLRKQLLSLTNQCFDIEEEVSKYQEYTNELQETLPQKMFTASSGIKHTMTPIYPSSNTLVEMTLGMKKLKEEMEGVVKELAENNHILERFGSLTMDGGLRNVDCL
Description: as §1, §2, §3, §4, §5

[14] = target: SRPK1 (Homo sapiens, UniProt Q96SB4); test: Protein kinase assay ([γ-32P] ATP), SRPK1
Chain of SRPK1 (Q96SB4 whole entry, species assumed): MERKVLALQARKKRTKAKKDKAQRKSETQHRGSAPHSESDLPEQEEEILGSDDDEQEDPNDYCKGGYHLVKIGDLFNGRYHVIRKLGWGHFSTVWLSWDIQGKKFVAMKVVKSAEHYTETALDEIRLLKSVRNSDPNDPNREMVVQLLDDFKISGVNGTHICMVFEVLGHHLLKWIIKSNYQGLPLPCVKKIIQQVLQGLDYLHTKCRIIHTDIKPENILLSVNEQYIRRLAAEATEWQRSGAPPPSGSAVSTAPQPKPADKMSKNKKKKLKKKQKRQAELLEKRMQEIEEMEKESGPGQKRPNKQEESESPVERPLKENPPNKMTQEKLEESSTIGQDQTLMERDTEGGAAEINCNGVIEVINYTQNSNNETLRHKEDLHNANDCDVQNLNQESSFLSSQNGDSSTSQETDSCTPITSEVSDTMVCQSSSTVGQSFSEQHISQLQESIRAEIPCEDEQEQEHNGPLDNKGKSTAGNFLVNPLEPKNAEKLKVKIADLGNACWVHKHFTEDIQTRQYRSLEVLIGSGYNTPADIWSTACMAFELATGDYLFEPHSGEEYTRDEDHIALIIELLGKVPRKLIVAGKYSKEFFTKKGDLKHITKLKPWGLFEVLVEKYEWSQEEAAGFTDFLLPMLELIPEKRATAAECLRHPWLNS
Description: as §1, §2, §3, §4, §5

[15] = target: PIM1 (Homo sapiens, UniProt P11309); test: Protein kinase assay ([γ-32P] ATP), PIM1
Chain of PIM1 (P11309 whole entry): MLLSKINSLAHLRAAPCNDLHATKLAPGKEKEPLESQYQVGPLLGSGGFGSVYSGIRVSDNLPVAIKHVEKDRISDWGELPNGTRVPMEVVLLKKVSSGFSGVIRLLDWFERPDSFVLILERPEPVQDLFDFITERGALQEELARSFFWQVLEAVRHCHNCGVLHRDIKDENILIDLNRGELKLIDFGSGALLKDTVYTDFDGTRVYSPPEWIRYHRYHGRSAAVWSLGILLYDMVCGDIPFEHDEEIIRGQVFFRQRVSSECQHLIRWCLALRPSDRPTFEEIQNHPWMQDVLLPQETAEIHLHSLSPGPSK
Description: as §1, §2, §3, §4, §5

[16] = target: MPSK1 (Homo sapiens, UniProt O75716); test: Protein kinase assay ([γ-32P] ATP), MPSK1
Chain of MPSK1 (O75716 whole entry): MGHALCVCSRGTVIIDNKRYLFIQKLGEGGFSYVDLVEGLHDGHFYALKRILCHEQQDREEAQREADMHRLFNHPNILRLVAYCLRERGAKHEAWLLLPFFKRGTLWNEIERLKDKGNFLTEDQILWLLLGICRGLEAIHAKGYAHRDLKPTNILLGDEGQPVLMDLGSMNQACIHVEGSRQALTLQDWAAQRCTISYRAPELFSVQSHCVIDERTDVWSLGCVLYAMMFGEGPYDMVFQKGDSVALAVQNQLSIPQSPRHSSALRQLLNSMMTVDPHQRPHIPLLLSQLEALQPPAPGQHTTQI
Description: as §1, §2, §3, §4, §5

[17] = target: MARK4 (Homo sapiens, UniProt Q96L34); test: Protein kinase assay ([γ-32P] ATP), MARK4
Description: as §1, §2, §3, §4, §5

[18] = 0.1 μM of compound I-1, DMSO control = 100%
[19] = 1 μM of compound I-1, DMSO control = 100%

Chain of DYRK3 (O43781 whole entry): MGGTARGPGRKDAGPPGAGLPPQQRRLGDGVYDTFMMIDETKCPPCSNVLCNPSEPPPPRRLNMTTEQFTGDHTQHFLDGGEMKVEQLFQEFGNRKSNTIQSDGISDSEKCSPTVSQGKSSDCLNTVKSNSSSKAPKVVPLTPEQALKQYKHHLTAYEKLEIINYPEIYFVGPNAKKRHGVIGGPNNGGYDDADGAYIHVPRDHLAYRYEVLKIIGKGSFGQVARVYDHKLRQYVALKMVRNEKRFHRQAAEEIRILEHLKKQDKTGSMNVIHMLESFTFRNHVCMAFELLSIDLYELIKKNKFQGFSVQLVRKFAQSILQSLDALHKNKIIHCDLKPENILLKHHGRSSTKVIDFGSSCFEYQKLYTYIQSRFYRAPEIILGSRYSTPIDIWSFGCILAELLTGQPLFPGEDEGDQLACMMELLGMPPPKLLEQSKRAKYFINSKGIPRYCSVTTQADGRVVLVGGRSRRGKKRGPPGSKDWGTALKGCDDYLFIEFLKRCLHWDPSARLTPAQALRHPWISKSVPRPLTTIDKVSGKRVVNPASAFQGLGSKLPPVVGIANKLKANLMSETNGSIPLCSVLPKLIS

`Cc1cccc(C)c1NC(=O)N1C/C=C\COc2cccc(c2)Nc2cc1ncn2` [Compound I-1] showed a remaining activity at 0.1 µM [1, 18] of 99%, a remaining activity at 1 µM [1, 19] of 87% and a remaining activity at 0.1 µM [2, 18] of 93%. It also gave a remaining activity at 1 µM [2, 19] of 84%, a remaining activity at 0.1 µM [3, 18] of 112% and a remaining activity at 1 µM [3, 19] of 92%. For the same molecule, the remaining activity at 0.1 µM [4, 18] was 98%, the remaining activity at 1 µM [4, 19] was 92% and the remaining activity at 0.1 µM [5, 18] was 51%. For the same molecule, the remaining activity at 1 µM [5, 19] was 30%, the remaining activity at 0.1 µM [6, 18] was 97% and the remaining activity at 1 µM [6, 19] was 87%. It also gave a remaining activity at 0.1 µM [7, 18] of 99%, a remaining activity at 1 µM [7, 19] of 94% and a remaining activity at 0.1 µM [8, 18] of 109%. For the same molecule, the remaining activity at 1 µM [8, 19] was 61%, the remaining activity at 0.1 µM [9, 18] was 107% and the remaining activity at 1 µM [9, 19] was 72%. For the same molecule, the remaining activity at 0.1 µM [10, 18] was 101%, the remaining activity at 1 µM [10, 19] was 75% and the remaining activity at 0.1 µM [11, 18] was 90%. For the same molecule, the remaining activity at 1 µM [11, 19] was 64%, the remaining activity at 0.1 µM [12, 18] was 104% and the remaining activity at 1 µM [12, 19] was 101%. The remaining activity at 0.1 µM [13, 18] was 109%, the remaining activity at 1 µM [13, 19] was 83% and the remaining activity at 0.1 µM [14, 18] was 100%. It also gave a remaining activity at 1 µM [14, 19] of 74%, a remaining activity at 0.1 µM [15, 18] of 132% and a remaining activity at 1 µM [15, 19] of 93%. For the same molecule, the remaining activity at 0.1 µM [16, 18] was 110%, the remaining activity at 1 µM [16, 19] was 89% and the remaining activity at 0.1 µM [17, 18] was 103%. For the same molecule, the remaining activity at 1 µM [17, 19] was 81%.
